According to PubChem BioAssay (NCI):
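How tested: cells in 96-well plates exposed to compound for 48 hours at five concentrations. Here, GI50 denotes the concentration required for 50% inhibition of growth. TGI marks complete inhibition of growth.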

Assays:
Assay in all cases: NCI tumour cell line growth inhibition, 48 h
[1] = system: HCT-15 colon
[2] = system: M14 melanoma
[3] = system: MOLT-4 leukemia
[4] = system: NCI-H460 lung
[5] = system: OVCAR-8 ovarian
[6] = system: RPMI-8226 leukemia
[7] = system: SF-539 CNS
[8] = system: SR leukemia
[9] = system: U251 CNS
[10] = system: KM12 colon

COc1ccc(/C(Cl)=C(\C=O)c2ccc(OC)cc2)cc1
TGI [1]: > 100 µM
TGI [2]: > 100 µM
TGI [3]: > 100 µM
TGI [4]: > 100 µM
TGI [5]: > 100 µM
TGI [6]: > 100 µM
TGI [7]: > 100 µM
TGI [8]: 78.8 µM
TGI [9]: > 100 µM

Cc1c2cccc-2c(OCCO)cc2c3ccccc3n(C)c12
TGI [1]: 45 µM
TGI [10]: 12.9 µM
TGI [2]: 12.2 µM
TGI [3]: 34.6 µM
TGI [4]: 18.3 µM
TGI [5]: 10.1 µM
TGI [7]: 5.92 µM
TGI [8]: 6.12 µM
TGI [9]: 5.84 µM

CC(C)C(C/C=C1\CC(CO)(COC(=O)C(C)(C)C)OC1=O)C(C)C (configuration not stated)
TGI [1]: 29.8 µM
TGI [10]: 28.2 µM
TGI [2]: 29.8 µM
TGI [3]: 25 µM
TGI [4]: 31 µM
TGI [5]: 31.1 µM
TGI [7]: 20.9 µM
TGI [8]: > 100 µM
TGI [9]: 29.8 µM

COc1ccc2c(c1)CCCN2CCCCCCCCCCN(CCC(C)C)CCC(C)C
TGI [1]: 23.4 µM
TGI [10]: 17.4 µM
TGI [2]: 27.2 µM
TGI [3]: 22.6 µM
TGI [4]: 24.3 µM
TGI [6]: 6.18 µM
TGI [7]: 11.1 µM
TGI [9]: 26.6 µM

COc1ccc(C2=C3SC=c4ccccc4=C3ON=C2c2ccccc2)cc1
TGI [1]: > 100 µM
TGI [10]: > 100 µM
TGI [2]: > 100 µM
TGI [3]: > 100 µM
TGI [4]: > 100 µM
TGI [5]: > 100 µM
TGI [6]: > 100 µM
TGI [7]: > 100 µM
TGI [8]: > 100 µM
TGI [9]: > 100 µM

N=C1C(=N)c2ccccc2-c2ccccc21.N=C1C(=N)c2ccccc2-c2ccccc21.N=C1C(=N)c2ccccc2-c2ccccc21.[Cl-].[Ru+2]
TGI [10]: > 68 µM
TGI [2]: 3.72 µM
TGI [3]: 5.46 µM
TGI [4]: 6.29 µM
TGI [5]: 3.14 µM
TGI [6]: 5.4 µM
TGI [7]: 3.27 µM
TGI [8]: 5.57 µM
TGI [9]: 3.08 µM

NCCCn1c2c(c3ccc([N+](=O)[O-])cc3c1=O)C(=O)c1ccccc1-2
GI50 [1]: 29 nM
TGI [1]: 0.81 µM
GI50 [10]: 89.2 nM
TGI [10]: 1.23 µM
GI50 [2]: 161 nM
TGI [2]: 1.06 µM
GI50 [3]: 114 nM
TGI [3]: > 50 µM
GI50 [4]: 8.87 nM
TGI [4]: > 50 µM
GI50 [5]: 114 nM
TGI [5]: 0.77 µM
GI50 [6]: 28.4 nM
GI50 [7]: 138 nM
TGI [7]: 0.596 µM
GI50 [8]: 5 nM
TGI [8]: > 50 µM
GI50 [9]: 0.005 µM
TGI [9]: 0.0534 µM

Cc1cc(/N=C/c2ccc(F)cc2)n(-c2ccccc2)n1
TGI [1]: > 100 µM
TGI [10]: > 100 µM
TGI [2]: > 100 µM
TGI [3]: > 100 µM
TGI [4]: > 100 µM
TGI [5]: > 100 µM
TGI [6]: 92.8 µM
TGI [7]: > 100 µM
TGI [8]: > 100 µM
TGI [9]: > 100 µM

CC(=O)NNc1nc(-c2ccc([N+](=O)[O-])cc2)c(C#N)c(=O)n1C
TGI [1]: > 100 µM
TGI [10]: > 100 µM
TGI [2]: > 100 µM
TGI [3]: > 100 µM
TGI [4]: > 100 µM
TGI [5]: 89.3 µM
TGI [6]: > 100 µM
TGI [7]: 35.1 µM
TGI [8]: > 100 µM
TGI [9]: 50 µM

CC(=O)O[C@H]1CC[C@@]2(C)C(=CC[C@H]3[C@@H]4C/C(=C\c5ccc(N(C)C)cc5)[C@H](OC(C)=O)[C@@]4(C)CC[C@@H]32)C1
TGI [1]: 31.9 µM
TGI [10]: > 100 µM
TGI [2]: 36 µM
TGI [3]: > 100 µM
TGI [4]: 18.2 µM
TGI [5]: 23.4 µM
TGI [6]: > 100 µM
TGI [7]: 27.9 µM
TGI [8]: > 100 µM
TGI [9]: 19.4 µM

CSc1ccsc1-c1sc(-c2cc(SC)c(-c3sc(-c4cc(SC)c(-c5sccc5SC)s4)cc3SC)s2)cc1SC
TGI [1]: > 100 µM
TGI [10]: > 100 µM
TGI [2]: > 100 µM
TGI [3]: > 100 µM
TGI [4]: > 100 µM
TGI [5]: > 100 µM
TGI [6]: > 100 µM
TGI [7]: > 100 µM
TGI [9]: > 100 µM

CCSC1=N/C(=C\c2ccc(N(C)C)cc2)C(Cl)=N1
TGI [1]: > 100 µM
TGI [10]: > 100 µM
TGI [2]: > 100 µM
TGI [3]: > 100 µM
TGI [4]: > 100 µM
TGI [5]: > 100 µM
TGI [6]: > 100 µM
TGI [9]: > 100 µM

NCCc1cc(O)c(O)cc1O
TGI [1]: 44.5 µM
TGI [10]: 58.5 µM
TGI [2]: 92.5 µM
TGI [3]: 70.7 µM
TGI [4]: 80.4 µM
TGI [5]: > 53.6 µM
TGI [6]: 39.3 µM
TGI [7]: 44.3 µM
TGI [8]: 31 µM
GI50 [9]: 14 µM
TGI [9]: 28.5 µM

CN(C)CCCn1cnc2cc(Cl)c(Cl)cc21
TGI [1]: > 100 µM
TGI [10]: > 100 µM
TGI [2]: 36.1 µM
TGI [4]: > 100 µM
TGI [5]: > 100 µM
TGI [6]: > 100 µM
TGI [8]: > 100 µM
TGI [9]: > 100 µM

CCc1nc(N)nc(N)c1-c1ccc([N+](C)(C)C)cc1
TGI [1]: > 100 µM
TGI [10]: > 100 µM
TGI [2]: > 100 µM
TGI [3]: > 100 µM
TGI [4]: > 100 µM
TGI [5]: > 100 µM
TGI [6]: > 100 µM
TGI [7]: > 100 µM
TGI [8]: > 100 µM
TGI [9]: > 100 µM

O=P1(c2ccccc2)Nc2ccccc2SSc2ccccc2N1
TGI [1]: 35.8 µM
TGI [10]: 30.4 µM
TGI [3]: 49.9 µM
TGI [4]: 33.8 µM
TGI [5]: 37.2 µM
TGI [6]: 45.3 µM
TGI [7]: 34.3 µM
TGI [9]: 30.4 µM
